According to PubChem BioAssay AID1330 (NMMLSC, 2008):
Active and inactive are the calls of the source. No rule for the calls is given here.

The compounds below were run against Bcl-2-like protein 2 (Homo sapiens) (UniProt Q92843) (assay: Bcl-W/Bim binding regulators – biochemical, multiplexed, bead-based flow cytometry, fluorescence, dose response (AID 1330)).
Chain of Bcl-2-like protein 2 (Homo sapiens) (Q92843 whole entry, looked up): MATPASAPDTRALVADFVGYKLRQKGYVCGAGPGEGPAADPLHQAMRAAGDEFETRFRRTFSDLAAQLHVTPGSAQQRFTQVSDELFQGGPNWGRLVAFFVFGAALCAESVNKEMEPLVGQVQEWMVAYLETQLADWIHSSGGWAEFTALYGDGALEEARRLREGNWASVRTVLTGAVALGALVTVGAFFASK

Row | Structure (SMILES) | EC50
1 | COc1cccc(/C=N/Nc2nn3cnnc3c3ccccc23)c1 | inactive
2 | O=C(N/N=C/c1ccc(O)c(O)c1O)/C(=C/c1ccc([N+](=O)[O-])cc1)NC(=O)c1ccccc1 | inactive
3 | CCC(=O)N(CC)C1=C(O)c2ccccc2C(=O)C1=O | inactive
4 | O=[N+]([O-])c1ccc(N/N=C/c2ccc(O)c(O)c2O)c(S(=O)(=O)N2CCOCC2)c1 | 3.52 µM
5 | COc1cccc(/C=N/Nc2nn3cnnc3c3ccccc23)c1O | inactive
